Reference: patent US8906925B2, “Pyrido[4,3-B]indoles containing rigid moieties” (Medivation Technologies, Inc., priority 2008, dated 2014)
“And” between values parts separate entries of the source, which are not always exact repeats. Equal entries are not always repeated. Where two headings read alike, the source gives them in different places.

Experiments:
[1] = target: T1, human recombinant serotonin (5-Hydroxytryptamine) 5-HT6 receptor (Homo sapiens, UniProt P50406); test: Serotonin 5-HT6 radioligand binding ([3H]LSD); settings: for inhibition at 1 µM / inhibition at 0.1 µM: read-out: Inhibition of ligand binding, Serotonin 5-HT6 (percent inhibition of specific binding); for inhibition at 0.1 µM: compound at 0.1 μM
T1 construct: expressed in transfected cells; host or cells: human HeLa cells
Experimental: Compounds of the invention were incubated with 1.5 nM [3H]Lysergic acid diethylamide (LSD) for 120 min. at 37° C. […] Receptor proteins were filtered and washed, the filters were then counted to determine [3H]LSD specifically bound. Compounds were screened at 1 μM or lower, using 1% DMSO as vehicle. Biochemical assay results are presented as the percent inhibition of specific binding in Table 10.

[2] = target: T2, human recombinant serotonin (5-Hydroxytryptamine) 5-HT2C receptor (Homo sapiens, UniProt P28335); test: Serotonin 5-HT2C radioligand binding ([3H]Mesulergine)
T2 construct: expressed in transfected cells; host or cells: Chinese hamster ovary (CHO-K1) cells
T2 sequence (P28335 33-458): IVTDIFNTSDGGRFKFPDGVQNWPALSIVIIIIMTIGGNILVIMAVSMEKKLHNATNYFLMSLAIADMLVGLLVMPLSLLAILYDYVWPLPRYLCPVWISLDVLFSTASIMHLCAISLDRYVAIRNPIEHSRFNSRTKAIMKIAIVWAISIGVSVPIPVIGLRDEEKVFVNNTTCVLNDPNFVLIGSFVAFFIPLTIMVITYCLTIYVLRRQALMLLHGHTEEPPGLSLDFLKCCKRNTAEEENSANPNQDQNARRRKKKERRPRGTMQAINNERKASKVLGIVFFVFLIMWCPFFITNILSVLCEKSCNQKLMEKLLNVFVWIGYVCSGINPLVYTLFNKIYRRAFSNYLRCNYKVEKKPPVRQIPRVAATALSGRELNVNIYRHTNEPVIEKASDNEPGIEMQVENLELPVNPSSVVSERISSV
How it was run: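 Compounds tested at 1 μM or lower (1% DMSO vehicle) for displacement of 1 nM [3H]Mesulergine over 60 min at 25° C. Specific binding determined by filtration counting, with 1 μM Mianserin defining non-specific binding; values are percent inhibition.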

[3] = target: human recombinant serotonin (5-Hydroxytryptamine) 5-HT7 receptor (Homo sapiens, UniProt P34969); test: Serotonin 5-HT7 radioligand binding ([3H]LSD); settings: for inhibition at 1 µM: compound at 1 μM, read-out: Inhibition of ligand binding, Serotonin 5-HT7 (percent inhibition of specific binding)
From the text: Receptor proteins were filtered and washed, the filters were then counted to determine [^3H]LSD specifically bound.

[4] = target: T3, human recombinant adrenergic α1D receptor (Homo sapiens, UniProt P25100); test: Adrenergic α1D radioligand binding ([3H]Prozosin); settings: compound at 1 μM
T3 construct: expressed in transfected cells; host or cells: human embryonic kidney (HEK-293) cells
T3 sequence (P25100 1-572): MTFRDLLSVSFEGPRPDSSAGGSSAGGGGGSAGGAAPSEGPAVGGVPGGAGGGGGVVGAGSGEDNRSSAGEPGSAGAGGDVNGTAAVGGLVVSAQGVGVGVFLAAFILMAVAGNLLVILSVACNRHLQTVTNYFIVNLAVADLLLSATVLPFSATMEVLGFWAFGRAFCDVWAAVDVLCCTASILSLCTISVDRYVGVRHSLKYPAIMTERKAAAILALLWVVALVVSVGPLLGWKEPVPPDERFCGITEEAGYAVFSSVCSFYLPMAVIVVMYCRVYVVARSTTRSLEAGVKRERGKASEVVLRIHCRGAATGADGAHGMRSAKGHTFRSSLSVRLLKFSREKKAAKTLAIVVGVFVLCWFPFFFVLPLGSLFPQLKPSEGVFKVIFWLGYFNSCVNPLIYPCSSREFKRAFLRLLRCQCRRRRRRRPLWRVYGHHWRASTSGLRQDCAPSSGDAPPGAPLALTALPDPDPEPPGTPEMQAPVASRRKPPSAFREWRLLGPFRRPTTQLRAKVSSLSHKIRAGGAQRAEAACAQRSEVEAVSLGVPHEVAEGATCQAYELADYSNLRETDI
Experimental: Compounds of invention were incubated with 0.6 nM [^3H]Prozosin for 60 min. at 25° C. Non-specific binding was estimated in the presence of 10 μM phentolamine. Receptor proteins were filtered and washed, the filters were then counted to determine [^3H]Prozosin specifically bound. Compounds were screened at 1 μM or lower, using 1% DMSO as vehicle. Biochemical assay results are presented as the percent inhibition of specific binding in Table 9.

[5] = target: human dopamine D2L receptor (Homo sapiens, UniProt P14416); test: Dopamine D2L radioligand binding ([3H]Spiperone); settings: compound at 1 μM
From the text: Non-specific binding was estimated in the presence of […] Haloperidol. Receptor proteins were filtered and washed, the filters were then counted to determine [^3H]Spiperone specifically bound. […] Biochemical assay results are presented as the percent inhibition of specific binding in Table 9.

[6] = compound at 1 μM, read-out: Inhibition of ligand binding, Serotonin 5-HT2C (percent inhibition of specific binding)
[7] = percent inhibition of specific binding, read-out: Inhibition of ligand binding, Adrenergic α1D
[8] = percent inhibition of specific binding, read-out: Inhibition of ligand binding, Dopamine D2L
[9] = read-out: Inhibition of ligand binding, Adrenergic α1D (percent inhibition of specific binding)

human dopamine D2L receptor, sequence (P14416 whole entry): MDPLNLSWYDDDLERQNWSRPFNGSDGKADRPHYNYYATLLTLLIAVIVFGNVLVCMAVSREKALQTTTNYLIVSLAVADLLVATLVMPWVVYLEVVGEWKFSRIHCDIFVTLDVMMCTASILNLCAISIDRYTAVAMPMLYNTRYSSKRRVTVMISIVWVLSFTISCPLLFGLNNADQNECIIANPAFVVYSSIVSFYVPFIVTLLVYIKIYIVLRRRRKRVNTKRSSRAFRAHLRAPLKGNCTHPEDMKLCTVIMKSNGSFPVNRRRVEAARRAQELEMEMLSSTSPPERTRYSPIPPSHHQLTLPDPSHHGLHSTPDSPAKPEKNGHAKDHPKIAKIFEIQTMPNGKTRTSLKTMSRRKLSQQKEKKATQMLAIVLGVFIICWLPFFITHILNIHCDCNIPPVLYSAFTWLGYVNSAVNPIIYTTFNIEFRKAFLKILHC
T1 sequence (P50406 whole entry): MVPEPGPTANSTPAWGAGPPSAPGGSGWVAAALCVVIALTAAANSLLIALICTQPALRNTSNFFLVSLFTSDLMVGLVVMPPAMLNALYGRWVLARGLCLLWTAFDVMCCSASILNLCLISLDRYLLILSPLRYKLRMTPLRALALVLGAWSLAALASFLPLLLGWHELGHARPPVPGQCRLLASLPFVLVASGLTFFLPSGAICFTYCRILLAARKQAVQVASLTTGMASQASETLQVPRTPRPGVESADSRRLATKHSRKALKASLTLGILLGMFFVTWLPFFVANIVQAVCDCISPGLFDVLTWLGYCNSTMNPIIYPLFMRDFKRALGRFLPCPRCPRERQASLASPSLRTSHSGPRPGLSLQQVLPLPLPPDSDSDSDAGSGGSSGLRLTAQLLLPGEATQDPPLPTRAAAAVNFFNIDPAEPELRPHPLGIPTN
human recombinant serotonin (5-Hydroxytryptamine) 5-HT7 receptor, sequence (P34969 whole entry): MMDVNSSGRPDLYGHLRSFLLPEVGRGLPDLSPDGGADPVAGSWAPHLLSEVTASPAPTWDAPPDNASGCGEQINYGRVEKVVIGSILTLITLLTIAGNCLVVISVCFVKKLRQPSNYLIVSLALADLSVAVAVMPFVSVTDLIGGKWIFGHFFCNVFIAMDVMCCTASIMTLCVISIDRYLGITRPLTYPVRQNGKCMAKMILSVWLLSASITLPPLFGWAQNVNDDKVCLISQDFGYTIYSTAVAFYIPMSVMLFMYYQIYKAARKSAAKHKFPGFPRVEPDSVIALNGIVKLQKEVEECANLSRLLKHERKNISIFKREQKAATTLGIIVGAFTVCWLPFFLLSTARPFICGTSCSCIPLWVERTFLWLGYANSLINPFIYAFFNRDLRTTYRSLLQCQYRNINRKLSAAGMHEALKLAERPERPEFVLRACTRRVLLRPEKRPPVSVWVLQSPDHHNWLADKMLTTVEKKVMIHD

SMILES | inhibition at 1 µM ([1]; compound at 1 μM) [%] | inhibition at 1 µM [2, 6] [%] | inhibition at 1 µM [3] [%] | inhibition at 1 µM [4, 7] [%] | inhibition at 0.1 µM [1] [%] | inhibition at 0.1 µM ([2]; compound at 0.1 μM, read-out: Inhibition of ligand binding, Serotonin 5-HT2C (percent inhibition of specific binding)) [%] | Inhibition of ligand binding, Serotonin 5-HT6 (percent inhibition of specific binding) ([1]; compound at 1 μM, 1 µM) [%] | Inhibition of ligand binding, Serotonin 5-HT2C (percent inhibition of specific binding) ([2]; compound at 0.1 μM, 0.1 µM) | Inhibition of ligand binding, Serotonin 5-HT2C (percent inhibition of specific binding) ([2]; compound at 1 μM, 1 µM) [%] | Inhibition of ligand binding, Serotonin 5-HT7 (percent inhibition of specific binding) ([3]; compound at 0.1 μM, 0.1 µM) | inhibition at 1 µM [5, 8] [%] | inhibition at 1 µM ([5]; […] [3H]Spiperone, read-out: Inhibition of ligand binding, Dopamine D2L (percent inhibition of specific binding)) [%] | inhibition at 1 µM [4, 9] [%]
CCN1CCc2c(c3ccccc3n2CC(O)c2ccc(C)cc2)C1 (racemic) [Compound 44, racemic-2-(2-ethyl-1,2,3,4-tetrahydropyrido[4,3-b]indol-5-yl)-1-p-tolylethanol] | 9 | 36 | 42 | 35 | – | – | – | – | – | – | – | – | –
CCN1CCc2c(c3cc(C)ccc3n2CC(O)c2ccc(C)cc2)C1 (racemic) [Compound 51, racemic-2-(2-ethyl-1,2,3,4-tetrahydro-8-methylpyrido[4,3-b]indol-5-yl)-1-p-tolylethanol] | 83 | 84 | 91 | 89 | 29 | 43 | – | – | – | – | – | – | –
Cc1ccc(C(O)Cn2c3c(c4ccccc42)CN(C)CC3)cc1 (racemic) [Compound 53, racemic-2-(1,2,3,4-tetrahydro-2-methylpyrido[4,3-b]indol-5-yl)-1-p-tolylethanol] | 49 | 82 | 87 | 55 | – | – | – | – | – | – | – | – | –
C/C(=C\n1c2c(c3cc(C)ccc31)CN(C)CC2)c1ccncc1 [Compound 88, (E)-2,3,4,5-tetrahydro-2,8-dimethyl-5-(2-(pyridin-4-yl)prop-1-enyl)-1H-pyrido[4,3-b]indole] | 102 | 99 | 93 | 78 | 82 | – | 103 | 74% and 96% | 100 | 75% and 97% | – | – | –
C=C(Cn1c2c(c3cc(Cl)ccc31)CN(C)CC2)c1ccc(C)nc1 [Compound 136, 8-chloro-2,3,4,5-tetrahydro-2-methyl-5-(2-(6-methylpyridin-3-yl)allyl)-1H-pyrido[4,3-b]indole] | 73 | 93 | – | 70 | – | – | – | – | – | – | 54 | – | –
C=C(Cn1c2c(c3cc(Cl)ccc31)CN(C)CC2)c1ccc(OC)c(F)c1 [Compound 140, 8-chloro-5-(2-(3-fluoro-4-methoxyphenyl)allyl)-2,3,4,5-tetrahydro-2-methyl-1H-pyrido[4,3-b]indole] | 75 | 98 | – | 84 | – | – | – | – | – | – | 57 | – | –
CN1CCc2c(c3cc(Cl)ccc3n2C2=C(c3cccnc3)CCCC2)C1 [Compound No. 166, 8-chloro-2-methyl-5-(2-(pyridin-3-yl)cyclohex-1-enyl)-2,3,4,5-tetrahydro-1H-pyrido[4,3-b]indole] | 6 | 46 | – | 28 | – | – | – | – | – | – | -2 | – | –
CN1CCc2c(c3cc(Cl)ccc3n2C#Cc2ccc(F)cc2)C1 [Compound No. 475, 8-chloro-5-((4-fluorophenyl)ethynyl)-2-methyl-2,3,4,5-tetrahydro-1H-pyrido[4,3-b]indole] | 99 | 96 | – | – | – | – | – | – | – | – | – | 95 | 91
Cc1ccc2c(c1)c1c(n2CC#Cc2ccccn2)CCN(C)C1 [Compound No. 500, 2,3,4,5-tetrahydro-2,8-dimethyl-5-(3-(pyridin-2-yl)prop-2-ynyl)-1H-pyrido[4,3-b]indole] | 18 | 77 | 48 | – | – | – | – | – | – | – | – | – | 11
Cc1ccc2c(c1)c1c(n2/C=C/c2ccc(C)nc2)CCN(C)C1 [compound 95, 2,3,4,5-tetrahydro-2,8-dimethyl-5-((E)-2-(6-methylpyridin-3-yl)vinyl)-1H-pyrido[4,3-b]indole] | 71 | 91 | – | 89 | – | – | – | – | – | – | 17 | – | –
